In patent publication US20210395311A1, “CYCLIC PEPTIDE DIMERS” (New York University, priority 2019, published 2021):
Entries after “also recorded” stand apart in the source; their conditions may differ. Bridge positions count the residues as written; N and C are the ends. Ends that are not written are not given here. I, II: the chains in the order shown.

Legend:
[1] = Solubility of the synthetic peptides; format: physicochemical; conditions: 10% acetonitrile in water was used to dissolve
Excerpt: It was synthesized separately. For 324822, protected linear peptide was cleaved from resin and cyclized in DMF following the above procedure. After removing the protecting groups, the peptide was isolated by RP-HPLC purification. […] 10% acetonitrile in water was used to dissolve the peptides.

[2] = system: B16F10 mouse melanoma cells; assay: CIF in vitro bioassay: contact inhibitory response of B16F10 cells to test samples; format: cell-based; conditions: for CIF activity of synthesized monomer and dimer: monomer and dimer separated by RP-HPLC, each separately bioassayed; for contact inhibition activity of cyclic peptide dimer isomers: peptides A-C unprotected, D-F with one Acm-protected Cys per ring
Excerpt: Contact Inhibitory Factor is a Structurally Novel Endogenous Cyclic Decapeptide Dimer. Determining the Structure of the CIF Molecule—Overall Approach. Identifying the molecule responsible for restoring contact inhibition of growth to melanoma cells first required production of the CIF positive culture medium from the serum free AM cell line (SFAMCM), followed by column chromatography, electrophoresis and mass spectroscopy of this culture medium. Samples obtained after each procedure were evaluated for CIF activity with an in vitro bioassay (Bioassay described herein). Identification of CIF structure evolved in three stages: (1) the CIF active conditioned medium from the AM cells (SFAMCM) contained a single decapeptide; (2) the decapeptide is head-to-tail cyclic; (3) the complete bioactive CIF molecule is a dimer composed of identical disulfide linked cyclic decapeptides. An in vitro bioassay used to monitor and guide purification involved the contact inhibitory response of B16F10 mouse melanoma cells to test samples. The latter included (1) CIF-containing medium from both the AM and revertant FF cell lines; (2) all fractions derived from the AM medium during purification; (3) the synthetic CIF peptide. Results were evaluated independently by two investigators. Samples were graded from 0 to 4, where 0 indicated no activity and 4 indicated maximum activity. Only samples graded 3 or 4 by both investigators were selected for purification.
Bioassay. Preparation of Samples. Conditioned Culture Medium (SFFFCM) and (SFAMCM). The positive control was the CIF positive conditioned culture medium from the FF cell line, SFFFCM. The negative control was DMEM 10% FBS. 3.6 ml of the sample was pipetted into a sterile 15 ml tube and heat activated at 80° C.×10 mins (minutes). After cooling to room temperature 0.4 ml FBS was added to make the FBS concentration 10%. For different volumes of conditioned culture medium the appropriate volume of FBS was added to make the final FBS concentration 10%. Both SFFFCM and SFAMCM were lyophilized and stored in desiccator jars under vacuum at 3° C.
Lyophilized Samples. To prepare the SFFFCM and the SFAMCM for the bioassay they were reconstituted with DMEM, heat activated at 80° C.×10 mins and cooled to room temperature. Sufficient volume of FBS was added to make the final FBS concentration 10%. The final volume of the sample was at least 2 ml to ensure that there was enough material for refeeding the bioassay plates.
Dilution of Samples. The samples were tested at 1:1 (undiluted), 1:2 and 1:4. The dilutions were made with DMEM 10% FBS. Higher dilutions may be used as needed. Each well contained 0.2 ml of sample, including the positive and negative controls. Each sample was done in duplicate. The wells were refed with fresh sample after 48 hrs.
Setting up the Bioassay. Using a 96 well flat bottom plate, 0.2 ml sterile water was pipetted into all outside wells. 0.2 ml 10% DMEM containing 20,000 B16F10 cells were pipetted into each well for the bioassay. Each sample was done in duplicate, including positive and negative controls. […]. The plate was placed in a 37° C., 5% CO2 incubator for approximately 4 hours to allow for cells to attach and spread. The time for attachment may vary for other cell lines. After the cells had attached and spread, the DMEM was removed and replaced with 0.2 ml of sample, positive and negative controls. The wells were observed daily and scored for CIF activity. The wells were refed after 48 hours or as needed, 0.2 ml for weekdays, 0.3 ml for weekends.
Scoring for CIF Activity. The samples were scored for CIF activity as follows:
4+=All cells are contact inhibited, flattened with an elongated fibroblast-like morphology. 3+=Not all cells are contact inhibited, elongated or fibroblast-like. There are a few scattered clusters of dividing cells. 2+=Fewer contact Inhibited cells and more clusters of dividing cells. […]

Row | Substance | contact inhibition activity of cyclic peptide dimer isomers [2] | other results
1 | c (Gly-Met-Met-Cys-Val-Thr-His-Cys-Asn-Gly (SEQ ID NO:1)) w/Cys-Cys bridge (cyclo(GMMCVTHCNG); disulfide 4-8 (inferred)) [compound 324822] | – | solubility in 100% aqueous solution [1]: not soluble
2 | dimer: synthesized CIF dimer of two identical disulfide linked head-to-tail cyclic decapeptides (SEQ ID NO:1), peak at 2068 Da (cyclo(GMMCVTHCNG); also: disulfide-linked dimer of two identical cyclic peptides, Cys not given here) | – | CIF activity of synthesized monomer and dimer [2]: strongly positive; CIF activity of synthesized monomer and dimer ([2]; listed as synthetic dimer): CIF positive
3 | monomer: synthetic head-to-tail cyclic decapeptide Gly-Met-Met-Cys-Val-Thr-His-Cys-Asn-Gly (SEQ ID NO:1), peak at 1034 Da (GMMCVTHCNG; head-to-tail cyclized) | – | CIF activity of synthesized monomer and dimer [2]: CIF negative
4 | peptide A: two head-to-tail cyclized SEQ ID NO:1 peptides; Cys at position 8 disulfide bonded to Cys at position 8 of the second (chain 1 GMMCVTHCNG; chain 2 GMMCVTHCNG; disulfide I:8-II:8; cysteine pairing not given here; also: head-to-tail to a chain's N/C-terminus) | suitable contact inhibitors | –
5 | peptide B: two head-to-tail cyclized SEQ ID NO:1 peptides; Cys at position 4 disulfide bonded to Cys at position 4 of the second (chain 1 GMMCVTHCNG; chain 2 GMMCVTHCNG; disulfide I:4-II:4; cysteine pairing not given here; also: head-to-tail to a chain's N/C-terminus) | suitable contact inhibitors | –
6 | peptide C: two head-to-tail cyclized SEQ ID NO:1 peptides; Cys at position 8 disulfide bonded to Cys at position 4 of the second (chain 1 GMMCVTHCNG; chain 2 GMMCVTHCNG; disulfide I:8-II:4; cysteine pairing not given here; also: head-to-tail to a chain's N/C-terminus) | suitable contact inhibitors | –
7 | peptide D: SEQ ID NO:1 head to tail cyclized, attached via a disulfide bond, one Cys on each sequence acetamidomethyl (Acm) protected (chain 1 GMMCVTHCNG; chain 2 GMMCVTHCNG; disulfide (positions not given here); also: one Cys per chain Acm-protected, which not given here, head-to-tail to a chain's N/C-terminus) | did not have activity; also recorded: not effective contact inhibitors | –
8 | peptide E: SEQ ID NO:1 head to tail cyclized, attached via a disulfide bond, one Cys on each sequence acetamidomethyl (Acm) protected (chain 1 GMMCVTHCNG; chain 2 GMMCVTHCNG; disulfide (positions not given here); also: one Cys per chain Acm-protected, which not given here, head-to-tail to a chain's N/C-terminus) | did not have activity; also recorded: not effective contact inhibitors | –
9 | peptide F: SEQ ID NO:1 head to tail cyclized, attached via a disulfide bond, one Cys on each sequence acetamidomethyl (Acm) protected (chain 1 GMMCVTHCNG; chain 2 GMMCVTHCNG; disulfide (positions not given here); also: one Cys per chain Acm-protected, position not given here, head-to-tail to a chain's N/C-terminus, head-to-tail to a chain's N/C-terminus) | did not have activity; also recorded: not effective contact inhibitors | –
